Data set [1] concerns BL21-DE3. The experiment in a line: Inhibition of Bacillus subtilis C-terminal GST-tagged RNAP beta'-CH expressed in Escherichia coli BL21 (DE3) cells binding interaction with Escherichia coli sigma-70/Bacillus subtilis full length SigmaA2.2 expressed in Escherichia coli C41 (DE3) cells using TMB as substrate at 15 uM preincubated for 1 hr followed by substrate addition by ELISA relative to control. (An ELISA detects its analyte on a solid surface through an enzyme-linked reagent.)

Data set [2] is described as follows: Solubility of compound in Luria-Bertani medium at 200 uM. In kind it is physicochemical.
Data set [3] deals with Escherichia coli. Put plainly: Antibacterial activity against Escherichia coli DH5[alpha] assessed as growth inhibition at 200 uM measured every 10 mins for 16 hrs by FLUOstar Optima plate reader analysis relative to control. The settings on record: for inhibition of growth at 200 µM: read-out: GI. In kind it is functional.
Data set [4] has as its system Bacillus subtilis. The experiment in a line: Antibacterial activity against Bacillus subtilis 168 assessed as growth inhibition at 200 uM measured every 10 mins for 16 hrs by FLUOstar Optima plate reader analysis relative to control. In kind it is functional. As to conditions: for inhibition of growth at 200 µM: read-out: GI.
The test system of data set [5] is Escherichia coli. The experiment in a line: Antibacterial activity against Escherichia coli DH5[alpha] assessed as inhibition of exponential phase of bacterial growth at 200 uM measured every 10 mins for 16 hrs by FLUOstar Optima plate reader analysis relative to control. Type of data set: functional. As to conditions: read-out: GI.
The subject of data set [6] is Bacillus subtilis. Put plainly: Antibacterial activity against Bacillus subtilis 168 assessed as inhibition of exponential phase of bacterial growth at 200 uM measured every 10 mins for 16 hrs by FLUOstar Optima plate reader analysis relative to control. In kind it is functional. The settings on record: read-out: GI.

Calls of active or inactive are those of the source. The rule behind the calls is not given here.

38 compounds from ChEMBL document CHEMBL3758170, “From indole to pyrrole, furan, thiophene and pyridine: Search for novel small molecule inhibitors of bacterial transcription initiation complex formation” (Bioorg Med Chem, 2016) can be followed below.

Usually inhibition stands for how much of the control response was suppressed. In turn, `O=C(N/N=C/c1ccc[nH]1)c1cccs1` gave an inhibition in data set [1] of 34%. In data set [2], the solubility entry is “soluble”. Moreover, the values for the inhibition of growth at 200 µM in data set [3] and in data set [4] were 22% and 33%, respectively.
On to `COc1cc(OC)c2c(-c3ccc(Cl)cc3)c[nH]c2c1C(=O)NNC(=O)c1cccs1`, for which, in data set [1], the inhibition result was “inactive”. For the same compound, in data set [2], the solubility entry is listed as “soluble”. Also, the “growth inhibition (GI)” value in data set [3] and in data set [4] was “inactive” in each case.
As for `COc1cnc(Cl)cc1C(=O)NNC(=O)c1c(OC)cc(OC)c2c(-c3ccc(Br)cc3)c[nH]c12`, the inhibition in data set [1] worked out at 17%. The solubility entry in data set [2] is “soluble”. Also, the inhibition of growth at 200 µM in data set [3] is 24%; in data set [4], 13%.
Turning to `O=C(N/N=C/c1cc(Br)cs1)c1ccc[nH]1`, the inhibition in data set [1] is 27%. Besides, the inhibition of growth at 200 µM worked out at 51% in data set [5] and 73% in data set [6]. In data set [2], the solubility entry is “soluble”.
Turning to `O=C(N/N=C/c1ccco1)c1ccc[nH]1`, the inhibition in data set [1] amounted to 8%. For the same compound, the solubility result in data set [2] is “soluble”. The inhibition of growth at 200 µM in data set [3] is 3%. The “growth inhibition (GI)” value in data set [4] is “inactive”.
`O=C(N/N=C/c1cccs1)c1ccnc(Br)c1` yielded an inhibition in data set [1] of 6%. Moreover, the solubility entry in data set [2] is “soluble”. Besides, the inhibition of growth at 200 µM in data set [3] is 59%; in data set [4] it was 35%.
As for `O=C(N/N=C/c1cccs1)c1ccco1`, in data set [1], the inhibition is 29%. In data set [3], the inhibition of growth at 200 µM is 23%. Further, the “growth inhibition (GI)” value in data set [4] is “inactive”.
`COc1cc(OC)c2c(-c3ccc(Cl)cc3)c[nH]c2c1C(=O)N/N=C/c1ccco1` returned an inhibition in data set [1] of 34%. Also, the inhibition of growth at 200 µM came out at 37% in data set [5] and 7% in data set [4]. For the same compound, in data set [2], the solubility result is on record as “soluble”.
Compound `COc1cc(OC)c2c(-c3ccc(Br)cc3)c[nH]c2c1C(=O)NNC(=O)c1ccncc1Br` had an inhibition in data set [1] of 3%. Also, the results for the inhibition of growth at 200 µM in data set [6] and in data set [3] were 52% and 14%, respectively. Further, the solubility entry in data set [2] was “soluble”.
Turning to `O=C(N/N=C/c1ccc[nH]1)c1ccc[nH]1`, the inhibition in data set [1] is 41%. The solubility entry in data set [2] was “soluble”. The inhibition of growth at 200 µM is 21% in data set [3] and 30% in data set [4].
With `COc1cc(OC)c2c(-c3ccc(Cl)cc3)c[nH]c2c1C(=O)N/N=C/c1cccs1`, in data set [1], the inhibition is 38%. The solubility result in data set [2] is reported as “soluble”. The “growth inhibition (GI)” value in data set [3] and in data set [4] was “inactive” each time.
As to `O=C(N/N=C/c1ccco1)c1ccnc(Cl)c1`, the inhibition in data set [1] was found to be 32%. In data set [2], the solubility entry was “soluble”. For the same compound, the inhibition of growth at 200 µM in data set [3] stood at 3%. For the same compound, in data set [4], the “growth inhibition (GI)” value is “inactive”.
As for `COc1cc(OC)c2c(-c3ccc(Cl)cc3)c[nH]c2c1C(=O)NNC(=O)c1ccc[nH]1`, the inhibition result in data set [1] is “inactive”. Further, in data set [2], the solubility entry is “soluble”. Moreover, the “growth inhibition (GI)” value in data set [3] and in data set [4] was “inactive” throughout.
`O=C(N/N=C/c1cccs1)c1ccncc1Br` had an inhibition in data set [1] of 8%. In addition, the solubility entry in data set [2] is on record as “soluble”. Besides, the inhibition of growth at 200 µM in data set [3] came out at 18%; in data set [4], 11%.
`COc1cc(OC)c2c(-c3ccc(Cl)cc3)c[nH]c2c1C(=O)NNC(=O)c1ccnc(Cl)c1`: in data set [1], the inhibition came out at 14%. Besides, in data set [2], the solubility result is on record as “soluble”. Also, the figures for the inhibition of growth at 200 µM in data set [3] and in data set [4] were 10% and 17%, respectively.
For `O=C(N/N=C/c1ccc[nH]1)c1ccnc(Cl)c1` the same measures were 31%, “soluble”, 22% and 6%.
In turn, `COc1cc(OC)c2c(-c3ccc(Cl)cc3)c[nH]c2c1C(=O)NNC(=O)c1c(OC)cc(OC)c2c(-c3ccc(Cl)cc3)c[nH]c12` had an inhibition in data set [1] of 63%. Besides, the inhibition of growth at 200 µM in data set [4] amounted to 30%.
Compound `O=C(N/N=C/c1cccs1)c1ccc[nH]1` showed an inhibition in data set [1] of 20%. For the same compound, in data set [5], the inhibition of growth at 200 µM was found to be 26%. The solubility entry in data set [2] is on record as “soluble”. The “growth inhibition (GI)” value in data set [4] was “inactive”.
The compound `COc1cc(OC)c2c(-c3ccc(Cl)cc3)c[nH]c2c1C(=O)NNC(=O)c1ccnc(Br)c1` had an inhibition in data set [1] of 24%. In data set [6], the inhibition of growth at 200 µM turned out to be 25%. Further, the solubility result in data set [2] is on record as “soluble”. Also, in data set [3], the “growth inhibition (GI)” value was “inactive”.
With `O=C(N/N=C/c1ccco1)c1ccco1`, in data set [1], the inhibition amounted to 3%. Besides, in data set [2], the solubility entry is “soluble”. The inhibition of growth at 200 µM in data set [3] amounted to 18%. Also, the “growth inhibition (GI)” value in data set [4] is “inactive”.
Turning to `COc1cc(OC)c2c(-c3ccc(Br)cc3)c[nH]c2c1C(=O)NNC(=O)c1cccs1`, in data set [1], the inhibition result is “inactive”. The solubility entry in data set [2] was “soluble”. Also, the “growth inhibition (GI)” value in data set [3] and in data set [4] was “inactive” in each case.
In turn, `O=C(N/N=C/c1cccs1)c1ccnc(Cl)c1` returned an inhibition in data set [1] of 30%. The inhibition of growth at 200 µM in data set [6] came to 29%; in data set [3], 30%. For the same compound, the solubility result in data set [2] is given as “soluble”.
For the compound `COc1cc(OC)c2c(-c3ccc(Br)cc3)c[nH]c2c1C(=O)NNC(=O)c1ccc[nH]1`, the inhibition result in data set [1] is “inactive”. Besides, the solubility entry in data set [2] is on record as “soluble”. The “growth inhibition (GI)” value in data set [3] and in data set [4] was “inactive” each time.
The compound `COc1cc(OC)c2c(-c3ccc(Br)cc3)c[nH]c2c1C(=O)NNC(=O)c1ccnc(Cl)c1` came in with an inhibition in data set [1] of 17%. In data set [2], the solubility entry is reported as “soluble”. For the same compound, the inhibition of growth at 200 µM in data set [3] was found to be 15%. Moreover, the “growth inhibition (GI)” value in data set [4] was “inactive”.
`COc1cnc(Cl)cc1C(=O)NNC(=O)c1c(OC)cc(OC)c2c(-c3ccc(Cl)cc3)c[nH]c12`: the inhibition in data set [1] stood at 28%. Also, the results for the inhibition of growth at 200 µM in data set [6] and in data set [3] were 37% and 26%, respectively. For the same compound, the solubility result in data set [2] is reported as “soluble”.
`COc1cc(OC)c2c(-c3ccc(Br)cc3)c[nH]c2c1C(=O)N/N=C/c1ccc[nH]1` showed an inhibition in data set [1] of 46%. For the same compound, in data set [2], the solubility result is recorded as “soluble”. Moreover, the “growth inhibition (GI)” value in data set [3] and in data set [4] was “inactive” each time.
On to `O=C(N/N=C/c1cc(Br)cs1)c1ccco1`, for which the inhibition result in data set [1] was “inactive”. In addition, the solubility entry in data set [2] is on record as “soluble”. Further, in data set [3], the inhibition of growth at 200 µM was found to be 7%. Besides, the “growth inhibition (GI)” value in data set [4] is “inactive”.
The compound `O=C(N/N=C/c1ccc[nH]1)c1ccncc1Br` yielded an inhibition in data set [1] of 9%. Also, the solubility result in data set [2] was “soluble”. In addition, the inhibition of growth at 200 µM in data set [3] is 7%. Also, the “growth inhibition (GI)” value in data set [4] was “inactive”.
For the compound `CO[C@H]1/C=C/O[C@@]2(C)Oc3c(C)c(O)c4c(O)c(c(/C=N/N5CCN(C)CC5)c(O)c4c3C2=O)NC(=O)/C(C)=C\C=C\[C@H](C)[C@H](O)[C@@H](C)[C@@H](O)[C@@H](C)[C@H](OC(C)=O)[C@@H]1C` [RIFAMPIN], the inhibition of growth at 200 µM in data set [3] was determined as 98%; in data set [4], 100%.
The compound `O=C(N/N=C/c1ccc[nH]1)c1ccnc(Br)c1` came in with an inhibition in data set [1] of 8%. For the same compound, the solubility result in data set [2] was “soluble”. In addition, the inhibition of growth at 200 µM in data set [3] amounted to 53%. Also, the “growth inhibition (GI)” value in data set [4] is “inactive”.
`COc1cc(OC)c2c(-c3ccc(Br)cc3)c[nH]c2c1C(=O)N/N=C/c1ccco1`: the inhibition in data set [1] came out at 33%. Further, the solubility entry in data set [2] was “soluble”. Besides, in data set [3], the inhibition of growth at 200 µM came out at 16%. For the same compound, the “growth inhibition (GI)” value in data set [4] was “inactive”.
Regarding `COc1cc(OC)c2c(C)c(C(=O)NNC(=O)c3c(OC)cc(OC)c4c(-c5ccc(Cl)cc5)c[nH]c34)[nH]c2c1`, the inhibition in data set [1] worked out at 72%. Besides, the inhibition of growth at 200 µM in data set [3] was found to be 45%.
For `O=C(N/N=C/c1cc(Br)cs1)c1cccs1`, in data set [1], the inhibition was 36%. In addition, the solubility entry in data set [2] is given as “soluble”. For the same compound, the inhibition of growth at 200 µM in data set [3] turned out to be 23%. In addition, the “growth inhibition (GI)” value in data set [4] is “inactive”.
For the compound `O=C(N/N=C/c1ccco1)c1cccs1`, the inhibition in data set [1] worked out at 18%. Besides, the inhibition of growth at 200 µM is 50% in data set [5] and 4% in data set [4]. Besides, the solubility result in data set [2] is on record as “soluble”.
Turning to `O=C(N/N=C/c1cccs1)c1cccs1`, the inhibition in data set [1] turned out to be 27%. Moreover, the inhibition of growth at 200 µM in data set [5] worked out at 56%. For the same compound, the “growth inhibition (GI)” value in data set [4] was “inactive”.
As to `COc1cc(OC)c2c(-c3ccc(Br)cc3)c[nH]c2c1C(=O)N/N=C/c1cccs1`, in data set [1], the inhibition entry was “inactive”. Besides, in data set [2], the solubility result is reported as “soluble”. Further, the inhibition of growth at 200 µM in data set [3] amounted to 29%. Further, in data set [4], the “growth inhibition (GI)” value was “inactive”.
`O=C(N/N=C/c1ccc[nH]1)c1ccco1` displayed an inhibition in data set [1] of 21%. Moreover, in data set [2], the solubility entry is “soluble”. Besides, the “growth inhibition (GI)” value in data set [3] and in data set [4] was “inactive” each time.
In data set [1], `COc1cc(OC)c2c(-c3ccc(Br)cc3)c[nH]c2c1C(=O)NNC(=O)c1ccnc(Br)c1` returned an inhibition of 20%. Also, in data set [6], the inhibition of growth at 200 µM was determined as 29%. Also, the solubility entry in data set [2] is “soluble”. Besides, the “growth inhibition (GI)” value in data set [3] is “inactive”.
